Measurements as given in patent US4026888A, “Certain derivatives of particular 3-thiolated cephalosporins” (priority 1976, dated 1977).
Values after ≈ are worked out from the molar mass of the structure shown. Like-named read-outs stand apart in the source and are kept apart here.

Legend:
S. aureus BX1633 A9606 = experiment: Antibiotic activity in nutrient broth (MIC); type: cell-based; details: derivatives adjusted for BL-S640 content
From the text: (§1) Antibiotic Activity In Nutrient Broth
(§2) ** Dilution of overnight broth culture.
(§3) Antibiotic Spectrum Nutrient Broth
(§4) Antibiotic Spectrum in Nutrient Broth

E. coli Juhl A15119 = experiment: Antibiotic activity in nutrient broth (MIC); type: cell-based; details: derivatives adjusted for BL-S640 content
From the text: as §1, §2, §3, §4

Ps. aeruginosa A9843A = experiment: Antibiotic activity in nutrient broth (MIC); type: cell-based; details: Pseudomonas aeruginosa
From the text: as §1, §2, §3, §4

E. coli A9675 = experiment: Antibiotic activity in nutrient broth (MIC); type: cell-based; details: derivatives adjusted for BL-S640 content
From the text: as §1, §2, §3, §4

Ent. cloacae A9659 = experiment: Antibiotic activity in nutrient broth (MIC); type: cell-based; details: derivatives adjusted for BL-S640 content
From the text: as §1, §2, §3, §4

Water solubility = type: physicochemical; details: for solubility: read-out: Solubility in water
[1] = Stability of aqueous solutions; type: physicochemical
Rat blood levels = type: in vivo; details: in words
[2] = Detection in urine (with mouse blood levels); type: in vivo; details: no evidence of the derivative
[3] = IR-NMR: cyclic / non cyclic derivative in solution; type: physicochemical; details: 70 mg/ml
[4] = system: S. aureus Meth-Res A15097; experiment: Antibiotic activity in nutrient broth (MIC); type: cell-based; details: inoculum 10^-3, Meth-Res, derivatives adjusted for BL-S640 content
From the text: as §1, §2, §3, §4

bacterial spectrum = experiment: Antibacterial activity / MIC bacterial spectrum compared with parent; type: cell-based; details: in words
From the text: |Antibiotic Activity In Nutrient Broth

Stability of solids = type: physicochemical; details: solid; 1 month at 56° C.; read-out: Stability of Solids (loss)
[5] = Staphylococcus aureus, BX1633A9606, inoculum 10^-2, read-out: MIC
[6] = Escherichia coli, JUHLA15119, inoculum 10^-4, read-out: MIC
[7] = Escherichia coli, A9675, inoculum 10^-4, read-out: MIC
[8] = Enterobacter cloacae, A9659, inoculum 10^-4, read-out: MIC
[9] = Staphylococcus aureus, BX1633A9606, inoculum 10^-3, read-out: MIC
[10] = Staphylococcus aureus, read-out: MIC

Method for physchem: Paper strip bioautographs were run in the following manner. Samples were dissolved at a concentration of 500 γ/ml. in 0.1M pH 7 phosphate buffer and pH 7 pooled human serum at 500 γ/ml. A 10 μl sample of BL-S640 and the above product were spotted on a 1/2 inch strip of What. No. 1 paper and developed at 27° for 16 hours in a butyl acetate 80, n-butanol 15, acetic acid 40, and water 24 system. The strips were air-dried, and placed on an agar plate seeded with B. subtilis A.T.C.C.
Samples were chromatographed on a μ Bondapak C18 (Waters Associates) column using a 0.01M sodium acetate pH 4/-methanol 8/2 mobile phase at a flow rate of 0.52 ml./min. Detection was by UV at 354 μm. Samples were dissolved at a concentration of 1 mg./ml. in the mobile phase, 2 μ were injected and BL-S640 was eluted at 18 min. and the aldehyde at 6 min. The quantitation of BL-S640 and 5-formylfuransulfonic acid were made using p-toluene-sulfonic acid as an internal standard.

SMILES | MIC (S. aureus BX1633 A9606; [5]) [µg/mL] | MIC (E. coli Juhl A15119; [6]) [µg/mL] | MIC (Ps. aeruginosa A9843A) [µg/mL] | MIC (E. coli A9675; [7]) [µg/mL] | MIC (Ent. cloacae A9659; [8]) [µg/mL] | solubility (Water solubility) [mg/mL] | MIC (S. aureus BX1633 A9606; [9]) [µg/mL] | MIC [4, 10] [µg/mL] | other results
N[C@@H](C(=O)N[C@@H]1C(=O)N2C(C(=O)O)=C(CSc3cnn[nH]3)CS[C@H]12)c1ccc(O)cc1 [BL-S640, 7-[D-α-amino-α-(p-hydroxyphenyl)acetamido]-3-(1,2,3-triazol-5-ylthiomethyl)-3-cephem-4-carboxylic acid, reference compound] | 4 (≈ 8.65 µM) | 1 (≈ 2.16 µM) | > 125 | 4 (≈ 8.65 µM) | 63 (≈ 136 µM) |  |  |  | MIC (S. aureus BX1633 A9606; inoculum 10^-2): 2 µg/mL (≈ 4.32 µM); MIC (E. coli Juhl A15119; inoculum 10^-4): 0.5 µg/mL (≈ 1.08 µM); MIC (E. coli A9675; inoculum 10^-4): 2 µg/mL (≈ 4.32 µM); MIC (Ent. cloacae A9659; inoculum 10^-4): 32 µg/mL (≈ 69.2 µM)
O=C(O)C1=C(CSc2cnn[nH]2)CS[C@@H]2[C@H](N3C(=O)[C@@H](c4ccc(O)cc4)NC3c3ccc(S(=O)(=O)O)o3)C(=O)N12 (stereo partly shown) [BL-S1027] | 4 (≈ 6.44 µM) | 1 (≈ 1.61 µM) | > 125 | 4 (≈ 6.44 µM) | 32 (≈ 51.6 µM) | > 500 | 0.5 (≈ 0.806 µM) | 4 to 8 (≈ 6.44 to 12.9 µM) | Solubility in water (Water solubility): > 400 mg/mL; Storage of aqueous solutions, loss in activity ([1]; 250, 25 and 10 mg. BL-S640 activity/ml., 4° C. or room temperature, at least 24 hours): no significant loss in activity; Stability of solution in water: stable (retained full bioactivity) ([1]; 25,000 mcg./ml., 6° C. (refrigerator)): 14 days; Stability of solution in water ([1]; 25,000 mcg./ml., room temperature, for at least three days): stable (retained full bioactivity) for at least three days; degraded at 24 h ([1]; water, 250, 25 and 10 mg./ml. of BL-S640 activity, at least 24 hours at room temperature, read-out: Stability of solutions (loss)): < 10%; Intramuscular rat blood levels compared with BL-S640 (Rat blood levels; intramuscular): equal to that of BL-S640; Oral rat blood levels compared with BL-S640 (Rat blood levels; oral): equal to that of BL-S640; Form appearing in urine [2]: BL-S640 appeared in urine with no evidence; non cyclic derivative in solution [3]: 20%; MIC [4]: 4 µg/mL (≈ 6.44 µM); MIC bacterial spectrum / activity compared with parent (bacterial spectrum): equal to that of BL-S640; degraded (Stability of solids): < 10%
O=C(O)COc1ccccc1C1N[C@H](c2ccc(O)cc2)C(=O)N1[C@@H]1C(=O)N2C(C(=O)O)=C(CSc3cnn[nH]3)CS[C@H]12 (stereo partly shown) [BL-S1048] | 2 (≈ 3.2 µM) | 0.5 (≈ 0.8 µM) | > 125 | 2 (≈ 3.2 µM) | 32 (≈ 51.2 µM) |  | 0.25 (≈ 0.4 µM) | 4 (≈ 6.4 µM) | 
O=C(O)C1=C(CSc2cnn[nH]2)CS[C@@H]2[C@H](N3C(=O)[C@@H](c4ccc(O)cc4)NC3c3ccccc3S(=O)(=O)O)C(=O)N12 (stereo partly shown) [BL-S1055] | 2 (≈ 3.17 µM) | 1 (≈ 1.59 µM) | > 125 | 4 (≈ 6.34 µM) | 63 (≈ 99.9 µM) | > 400 | 0.5 (≈ 0.793 µM) | 4 (≈ 6.34 µM) | degraded at 1 h (physchem): 70.5%; degraded at 2 h (physchem): 88%
